For one test, the system named is Rattus norvegicus. The test can be described thus: Percent reduction in cocaine induced reward enhancement after administration of compound at 5 mg/kg or 10 mg/kg combined with 10 mg/kg of cocaine intraperitoneally in rats. It is filed as functional.
For test [1], the target named is Norepinephrine transporter (Rattus norvegicus, UniProt Q9WTR4). The test can be described thus: Compound was tested for its ability to inhibit high-affinity uptake of [3H]NE into parietal and occipital cortex in rat.
For test [2], the target named is Sodium-dependent serotonin transporter (Rattus norvegicus, UniProt P31652). The test can be described thus: Compound was tested for its ability to inhibit high affinity uptake of [3H]5-HT into mid brain nerve endings (synaptosomes) in rat. It is filed as subcellular.
For test [3], the target named is T1, Sodium-dependent dopamine transporter (Rattus norvegicus, UniProt P23977). The test can be described thus: Compound was tested for its ability to inhibit high affinity uptake of [3H]DA into rat striatal membrane. Also noted: species or system Striatum.
The target of test [4] is T1, Sodium-dependent dopamine transporter. The test can be described thus: Binding affinity to a single, sodium-dependent site on the Dopamine transporter in rat striatal membranes. It is filed as cell membranes, Striatum, Membrane.
Test [5] shares this target. The test can be described thus: ability to displace [3H]- Mazindol binding to cocaine binding sites on Dopamine transporter of rat striatal membranes. Also on record: species or system Striatum, Membrane.

T1 sequence (P23977 whole entry): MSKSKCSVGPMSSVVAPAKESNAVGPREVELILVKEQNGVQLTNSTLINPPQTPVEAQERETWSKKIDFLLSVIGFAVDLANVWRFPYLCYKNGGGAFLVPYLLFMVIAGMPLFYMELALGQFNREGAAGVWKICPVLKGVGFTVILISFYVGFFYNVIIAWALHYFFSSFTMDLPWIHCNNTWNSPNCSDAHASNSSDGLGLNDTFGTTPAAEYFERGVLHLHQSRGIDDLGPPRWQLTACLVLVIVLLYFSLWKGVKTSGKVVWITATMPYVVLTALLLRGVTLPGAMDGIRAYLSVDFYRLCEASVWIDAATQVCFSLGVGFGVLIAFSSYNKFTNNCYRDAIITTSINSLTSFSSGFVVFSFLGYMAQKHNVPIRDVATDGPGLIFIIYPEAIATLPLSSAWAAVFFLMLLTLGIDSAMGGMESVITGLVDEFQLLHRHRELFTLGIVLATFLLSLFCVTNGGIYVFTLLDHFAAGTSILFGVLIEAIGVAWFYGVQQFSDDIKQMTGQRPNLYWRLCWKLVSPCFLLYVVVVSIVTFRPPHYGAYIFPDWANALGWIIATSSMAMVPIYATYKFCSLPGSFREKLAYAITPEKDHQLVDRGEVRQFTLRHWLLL
Sequence of Norepinephrine transporter (Q9WTR4 whole entry): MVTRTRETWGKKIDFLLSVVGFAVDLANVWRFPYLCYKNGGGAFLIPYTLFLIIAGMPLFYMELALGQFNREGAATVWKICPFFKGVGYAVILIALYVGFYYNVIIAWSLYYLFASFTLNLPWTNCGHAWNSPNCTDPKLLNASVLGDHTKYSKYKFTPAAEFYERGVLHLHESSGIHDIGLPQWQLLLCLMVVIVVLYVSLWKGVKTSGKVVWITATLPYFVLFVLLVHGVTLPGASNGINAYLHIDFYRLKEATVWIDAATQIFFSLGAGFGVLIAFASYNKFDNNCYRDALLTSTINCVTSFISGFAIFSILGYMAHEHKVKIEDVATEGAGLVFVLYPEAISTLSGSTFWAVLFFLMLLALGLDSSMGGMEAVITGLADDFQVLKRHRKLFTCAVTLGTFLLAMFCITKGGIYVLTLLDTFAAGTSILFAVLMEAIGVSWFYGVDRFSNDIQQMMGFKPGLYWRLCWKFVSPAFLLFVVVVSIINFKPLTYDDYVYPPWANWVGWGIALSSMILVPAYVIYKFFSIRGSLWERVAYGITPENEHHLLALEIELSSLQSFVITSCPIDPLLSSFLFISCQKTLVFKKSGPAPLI
Sequence of Sodium-dependent serotonin transporter (P31652 whole entry): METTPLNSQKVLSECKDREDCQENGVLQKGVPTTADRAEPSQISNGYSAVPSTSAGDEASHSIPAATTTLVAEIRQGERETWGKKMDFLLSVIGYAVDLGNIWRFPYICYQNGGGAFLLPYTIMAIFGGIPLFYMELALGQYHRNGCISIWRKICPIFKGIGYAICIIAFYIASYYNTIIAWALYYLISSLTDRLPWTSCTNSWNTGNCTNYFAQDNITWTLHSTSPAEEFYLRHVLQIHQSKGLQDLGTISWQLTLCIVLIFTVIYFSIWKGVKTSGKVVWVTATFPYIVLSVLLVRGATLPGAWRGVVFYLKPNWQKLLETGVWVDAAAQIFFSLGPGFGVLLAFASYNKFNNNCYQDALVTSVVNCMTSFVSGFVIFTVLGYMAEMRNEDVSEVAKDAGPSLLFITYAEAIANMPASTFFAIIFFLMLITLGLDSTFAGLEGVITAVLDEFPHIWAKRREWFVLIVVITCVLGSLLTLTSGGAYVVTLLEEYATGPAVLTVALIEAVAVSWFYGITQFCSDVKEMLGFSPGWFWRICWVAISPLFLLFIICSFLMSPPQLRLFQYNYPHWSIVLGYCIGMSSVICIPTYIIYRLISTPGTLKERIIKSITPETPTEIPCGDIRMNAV

A word on the Ki: it is the equilibrium dissociation constant of an inhibitor or competing ligand from its target. Higher therefore signals weaker binding. Consider `CCCC1C(c2ccc(F)cc2)CC2C[C@H](F)C1N2C` (stereo partly drawn), for which the Reduction in the test with Rattus norvegicus was determined as 60%. The results for the Ki in test [1], in test [2] and in test [3] were 52 nM, 561 nM and 49 nM, respectively.
As a reminder, the Kd is the concentration at which binding is half-saturated. Higher therefore signals lower affinity. In turn, `OC1(c2ccc(Cl)cc2)c2ccccc2C2=NCCN21` (stereo not drawn) [MAZINDOL] registered a Kd in test [4] of 8.63 nM. This lies in the single-digit nanomolar range.
As to `CCCC1C(c2ccc(F)cc2)CC2C[C@@H](F)C1N2C` (stereo partly drawn), the inhibition constant (Ki) worked out at 126 nM in test [1], 1150 nM in test [5], 1250 nM in test [2] and 304 nM in test [3].
Take `CCCC1C(c2ccc(F)cc2)CC2CC(F)(F)C1N2C` (stereo not drawn): the Ki in test [1] was 3790 nM; in test [5], 860 nM; in test [2], 7910 nM; in test [3], 1450 nM.

These data come from ChEMBL document CHEMBL1133212, “An enantioselective synthesis and biobehavioral evaluation of 7-fluoro-3-(p-fluorophenyl)-2-propyltropanes” (Bioorg Med Chem Lett, 2000).
